{"source": "patent US20230220339A1", "about": "“T CELL, PREPARATION METHOD FOR SAME, AND APPLICATIONS THEREOF” (BENETHERA (BEIJING) BIOTECHNOLOGY CO., LTD., priority 2020, published 2023)", "assay_type_in_all_cases": "cell-based, mouse", "key": {"m-calpain": {"tested_on": "m-calpain", "assay": "Calpain activity by digestion of the calpain substrate CMAC (flow cytometry)", "conditions": "for calpain activity (digestion rate of CMAC) after Ryr activation: 4-CMC treatment, FIG. 7", "method": "Wherein calpain activity measurement procedure: To measure calpain activity, 10^5 T cells were incubated in 200 µL of medium containing 20 µM calpain substrate CMAC (t-BOC-Leu-Met, Thermo Fisher) in the dark at room temperature. After 5 min of incubation, the reaction was terminated with 1 % PFA (Biosharp) and the cells were immediately placed on ice. The fluorescent signal emitted from the digested substrate was measured as calpain activity by Fortessa flow cytometer through the Hoechst blue channel. In all experiments, the inhibitor JTV519 was added 30 min prior to the experiments, and activator 4-CmC and CMAC were added at the same time."}, "DC2.4 cells": {"tested_on": "DC2.4 cells", "assay": "AFM single cell force spectrum, T-DC adhesion (two-cell system)", "conditions": "Ryr2 blocked in Tconv; intensities even stronger than that of Treg, FIG. 14", "method": "The atomic force microscope-based single cell force spectrum procedures were performed using JPK CellHesion device as described above (see “Alum interaction with dendritic cell membrane lipids is essential for its adjuvanticity” (Flach et al., Nat Med 17, 479-487, 2011) and “Strong adhesion by regulatory T cells induces dendritic cell cytoskeletal polarization and contact-dependent lethargy” (Chen et al., The Journal of experimental medicine, 2017)). Briefly, to measure T-DC adhesion in a two-cell system, DC2.4 cells were cultured on untreated glass plates. T cells were treated with 200 U/mL human IL-2 overnight. The glass plates were moved into an AFM compatible chamber and mounted on a machine table. Clean cantilevers were coated with CellTak (BD), and then stick an individual T cell on thefront end of the cantilever. The AFM cantilever carrying the individual T cell was lowered to allow T cell contact with a single DC and to interact for 15 s, and then moved upward until the two cells were completely separated. A force spectrum curve was obtained. The process was then repeated. […] Treg/Tconv contact-mediated inhibition of OT-II-DC adhesion was analyzed. […] For each SCFS experiment, a T-DC pair was used to generate force readings for each up-down cycle during a period of several minutes. […]"}, "3T3 and A20 cells": {"tested_on": "3T3 and A20 cells", "assay": "4-CmC-induced Ca^2+ signal in cells with or without FoxP3 overexpression", "conditions": "FoxP3-transfected 3T3 and A20 cells vs non-FoxP3 overexpression group, HBSS without calcium ions, FIG. 24", "method": "For non-adherent cells, Treg, Tconv and A20 cells were stained with […] fluo-4 AM (Thermo Fisher) for 1 h at 37° C. After washing, the cells were adhered to poly-L-lysine coated (0.1 mg/mL; Sigma-Aldrich) round glass slides mounted in the sandwich home-made chamber at room temperature. After 15 min, excess non-adherent cells were removed by washing with buffer. For adherent cells, NIH-3T3 and Renca cells grown on glass slides were stained with […] fluo-4 AM (Thermo Fisher) for 1 hour at 37° C. The measurement chamber was then placed on an Olympus IX-73 microscope equipped with a 20-fold (numerical aperture: 0.8) or 40-fold (numerical aperture: 1.2) Olympus objective. Unless otherwise stated, Ca^2+ oscillation within 20 min was recorded at intervals of 6 s. […] For the stimulation experiments, Ca^2+ oscillation within 5 min was recorded at intervals of 1 s. […] The emission signal at 468 nm to 550 nm excited by the 488 nm laser was recorded with a charge coupled device camera (ORCA-AG, Hamamatsu). […] The mean fluorescence intensity changes over time in individual cells were analyzed using ImageJ and normalized with fluorescence intensity in the first frame (Fluo-4 F / F0). The peak of Ca^2+ oscillation of the individual cells was shown, and the standard deviation of Ca^2+ fluctuation intensity was calculated as Mean ± SEM. […]"}}, "data": [{"smiles": "COc1ccc2c(c1)CN(C(=O)CCN1CCC(Cc3ccccc3)CC1)CCS2", "note": "[JTV519]", "values": [{"measurement": "digestion of m-calpain substrate after JTV519 treatment", "setting": "m-calpain; Tconv, inhibitor added 30 min prior, FIG. 13", "value": "digestion of low m-calpain substrate"}, {"measurement": "contact of treated Tconv with dendritic cells (adhesion)", "setting": "DC2.4 cells", "value": "induced strong contact with dendritic cells"}]}, {"smiles": "Cc1cc(O)ccc1Cl", "note": "[4-CmC]", "values": [{"measurement": "Ca^2+ signal driven by 4-CmC", "setting": "3T3 and A20 cells", "value": "drives much less Ca^2+ signal"}, {"measurement": "calpain activity (digestion rate of CMAC) after Ryr activation", "setting": "m-calpain; Tconv cells", "value": "completely able to induce calpain activity"}, {"measurement": "calpain activity (digestion rate of CMAC) after Ryr activation", "setting": "m-calpain; Treg cells", "value": "not sensitive"}]}]}
